A short description of the test: concentration series on yeast TOR reporter LAP4 – cell-based, MLPCN hits, flow cytometry, dose response (AID 2745).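 Further: yeast exposed to compound for three hours at 30 degrees.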 As to conditions: S. cerevisiae LAP4-GFP reporter, flow cytometry fluorescence; at 33 µM (top of the series).

Calls of active or inactive are those of the source. How the calls were made is not given here.

For `CCOC(=O)Cn1cc(/C=C/[N+](=O)[O-])c2ccccc21`, the LAP4-GFP fluorescence (kMESF) was 8.42 kMESF (inactive).

Regarding `O=C1N(c2ccccc2C(F)(F)F)O[C@]1(c1ccccc1)C1CCCCC1`, the LAP4-GFP fluorescence (kMESF) was 2.33 kMESF (inactive).

Consider `O=C(COc1c(Br)cc(Br)c2cccnc12)N1CCc2ccccc2C1`, for which the LAP4-GFP fluorescence (kMESF) was 12.3 kMESF (inactive).

For `CC(Oc1cc2oc(=O)c3c(c2cc1Cl)CCC3)C(=O)NCCN1CCOCC1` (centres undefined), the LAP4-GFP fluorescence (kMESF) was 2.43 kMESF (inactive).

`O=C(/C=C/c1ccccc1)NC(=S)NNC(=O)Cc1cccs1`: the LAP4-GFP fluorescence (kMESF) was 3.64 kMESF (inactive).

Consider `O=C(Oc1oc(-c2ccco2)nc1C=Nc1ccccc1)c1ccco1`, for which the LAP4-GFP fluorescence (kMESF) was 23.7 kMESF (inactive).

For `O=C(O)c1cccc(S(=O)(=O)Nc2ccc(S(=O)(=O)N3CCOCC3)cc2)c1`, the LAP4-GFP fluorescence (kMESF) is 3.38 kMESF (inactive).

Regarding `COc1cc(/C=C2\C(=O)ON=C2c2ccccc2)cc(Br)c1O`, the LAP4-GFP fluorescence (kMESF) was 14.7 kMESF (inactive).

In the case of `Cc1ccc(/C=C/C(=O)c2ccc([N+](=O)[O-])o2)cc1`, the LAP4-GFP fluorescence (kMESF) was 9.71 kMESF (inactive).

Turning to `CC(C)[C@@]1(c2ccccc2)ON(c2ccccc2C(F)(F)F)C1=O`, the LAP4-GFP fluorescence (kMESF) is 3.43 kMESF (inactive).

On to `CC[C@H](C)/C=C(C)/C=C/C1=CC2=C(Cl)C(=O)[C@@](C)(OC(C)=O)C(=O)C2=CO1`, for which the LAP4-GFP fluorescence (kMESF) was 0.86 kMESF (inactive).

Turning to `CCCc1cc(NCc2ccccn2)n2nc(C)c(-c3ccccc3)c2n1`, the LAP4-GFP fluorescence (kMESF) was 9.24 kMESF (inactive).

With `CN(C)c1ccc(N=Cc2nc(-c3ccccc3)oc2OC(=O)c2ccccc2)cc1`, the LAP4-GFP fluorescence (kMESF) was 4.09 kMESF (inactive).

Regarding `COc1cc(/C=C2\CC/C(=C\c3cc(OC)c(O)c(OC)c3)C2=O)cc(OC)c1O`, the LAP4-GFP fluorescence (kMESF) was 2.53 kMESF (inactive).

With `CCCc1nnc(NC(=O)c2c(O)c3cccc4c3n(c2=O)CCC4)s1`, the LAP4-GFP fluorescence (kMESF) was 0.3 kMESF (inactive).

As for `CC1=C(C)/C(=N\OS(=O)(=O)c2ccccc2)C=CC1=O`, the LAP4-GFP fluorescence (kMESF) is 9.73 kMESF (inactive).

Take `Cc1ccc(C(CC(=O)O)NC(=O)c2ccc(S(=O)(=O)N3CC(C)OC(C)C3)cc2)cc1` (centres undefined): the LAP4-GFP fluorescence (kMESF) is 3.28 kMESF (inactive).

Consider `Cc1ccc(-c2nn(C(C)(C)C)c3ncnc(N)c23)cc1`, for which the LAP4-GFP fluorescence (kMESF) was 8.82 kMESF (inactive).

With `O=C(/C=C/c1cccc([N+](=O)[O-])c1)c1ccc([N+](=O)[O-])o1`, the LAP4-GFP fluorescence (kMESF) is 2.78 kMESF (inactive).

For `O=C(/C=C/c1ccccc1Cl)c1ccccc(=O)c1O`, the LAP4-GFP fluorescence (kMESF) was -5.15 kMESF (inactive).

In the case of `CN(O)/C=c1/ccc2c(n1)C(=O)C=CC=2`, the LAP4-GFP fluorescence (kMESF) is 17.5 kMESF (inactive).

For `Cc1ccc2nc(/C(C#N)=C/c3ccc(O)c(O)c3)[nH]c2c1`, the LAP4-GFP fluorescence (kMESF) is 4.39 kMESF (inactive).

For `CCN(CC(=O)Nc1cc(S(=O)(=O)N2CCOCC2)ccc1Cl)Cc1ccccc1`, the LAP4-GFP fluorescence (kMESF) was 3.97 kMESF (inactive).

Regarding `N#Cc1ccc(N=c2ssnc2Cl)cc1`, the LAP4-GFP fluorescence (kMESF) was 9.41 kMESF (inactive).

As to `COc1cc(/C=C/[N+](=O)[O-])ccc1O`, the LAP4-GFP fluorescence (kMESF) was 7.18 kMESF (inactive).

In the case of `C[C@@H]1C[C@@H]([C@H](O)CC2CC(=O)NC(=O)C2)C(=O)[C@@H](C)C1`, the LAP4-GFP fluorescence (kMESF) is 6.31 kMESF (inactive).

Take `COC(CNC(=O)c1ccc2c3c(onc13)-c1ccccc1C2=O)OC`: the LAP4-GFP fluorescence (kMESF) was 2.86 kMESF (inactive).

As for `C#CCOCCOCCOCCNc1nc(N2CCN(C(=O)CCCCCCCCCCNC(=O)[C@H](CCCCN)n3cc(CCO)nn3)CC2)nc(N2CCN(C(=O)CCCCCCCCCCNC(=O)[C@H](CCCCN)n3cc(C[C@@H](C)CC)nn3)CC2)n1`, the LAP4-GFP fluorescence (kMESF) is 5.86 kMESF (inactive).

Consider `O=C(Nc1ccc(O)cc1)C1CCCN1S(=O)(=O)c1ccc(F)cc1` (centres undefined), for which the LAP4-GFP fluorescence (kMESF) was 3.13 kMESF (inactive).

`CCN(CC)C(=O)Oc1ccnc2cc(Cl)ccc12`: the LAP4-GFP fluorescence (kMESF) was 7.62 kMESF (inactive).

Turning to `O=C(Oc1ccnc2cc(Cl)ccc12)N1CCOCC1`, the LAP4-GFP fluorescence (kMESF) was 2.63 kMESF (inactive).

As for `CC(=O)[C@]1(O)Cc2c(O)c3c(c(O)c2[C@@H](O[C@H]2C[C@H](N)[C@H](O)[C@H](C)O2)C1)C(=O)c1ccccc1C3=O`, the LAP4-GFP fluorescence (kMESF) is 9.67 kMESF (inactive).

For the molecule `CCCCOc1ccc(C(=O)NNC(=S)NC(=O)CC)cc1`, the LAP4-GFP fluorescence (kMESF) is 9.81 kMESF (inactive).

For `O=C1N(c2ccccc2C(F)(F)F)O[C@@]1(c1ccccc1)C1CCCCC1`, the LAP4-GFP fluorescence (kMESF) is 2.73 kMESF (inactive).

Turning to `O=c1oc(/C=C/c2ccc([N+](=O)[O-])s2)nc2ccccc12`, the LAP4-GFP fluorescence (kMESF) was 12.6 kMESF (inactive).

For the molecule `O=C(NCc1ccc2c(c1)OCO2)c1nc(S(=O)(=O)Cc2ccccc2)ncc1Cl`, the LAP4-GFP fluorescence (kMESF) was 4.7 kMESF (inactive).

On to `O=C(NNC(=S)NC(=O)C12CC3CC(CC(C3)C1)C2)c1ccncc1`, for which the LAP4-GFP fluorescence (kMESF) is 15.7 kMESF (inactive).

Consider `Cc1ccc(/C(N)=N/OC(=O)c2ccc(F)cc2)cc1`, for which the LAP4-GFP fluorescence (kMESF) was 5.21 kMESF (inactive).

For `Oc1c(C(Nc2cccc(C(F)(F)F)c2)c2ccncc2)ccc2cccnc12` (centres undefined), the LAP4-GFP fluorescence (kMESF) was 11.8 kMESF (inactive).

For `O=C(/C=C/c1ccnc2ccccc12)c1cccs1`, the LAP4-GFP fluorescence (kMESF) was 11.4 kMESF (inactive).

As for `O=C(Nc1cccc(C(F)(F)F)c1)Oc1ccc(Cl)c2cccnc12`, the LAP4-GFP fluorescence (kMESF) was 12.8 kMESF (inactive).

With `CCC(=O)Oc1oc(-c2ccccc2)nc1C=Nc1ccccc1OC`, the LAP4-GFP fluorescence (kMESF) was 4.64 kMESF (inactive).

In the case of `O=[N+]([O-])c1ccc(Sc2nc3ccccc3o2)c([N+](=O)[O-])c1`, the LAP4-GFP fluorescence (kMESF) was 4.88 kMESF (inactive).

`O=C(NNC(=S)NC(=O)c1ccco1)c1ccc(F)cc1`: the LAP4-GFP fluorescence (kMESF) is 5.61 kMESF (inactive).
